Marks after values point to notes of the source that are not given here. Where a SMILES comes first, the peptide text is derived from it. [ ]: non-standard residue; d: D form. The star is where a group is joined. NMePhe(β,β-Me2) = CN[C@H](C(=O)O)C(C)(C)c1ccccc1; Tle = CC(C)(C)[C@H](N)C(=O)O; NMeV = CN[C@H](C(=O)O)C(C)C; NHBn = c1ccc(CN*)cc1

For assay [1], the system named is bovine microtubule-associated protein (MAP)-rich tubulin. It is filed as biochemical. How it is done:
Tubulin Polymerization Assays. For in vitro tubulin polymerization assays, bovine microtubule-associated protein (MAP)-rich tubulin, PEM buffer [80 mM Na-PIPES (pH 6.9), 1 mM MgCl2, and 1 mM EGTA], and GTP are purchased from Cytoskeleton (Denver, Colo.). MAP-rich tubulin (final concentration 1.5 mg/ml) is dissolved in cold PEM buffer containing 1 mM GTP (GPEM) and centrifuged at 12,000×g for 10 min at 4° C. The tubulin solution (100 μl/well) is added rapidly to wells of a low-volume, 96-well plate already containing duplicate aliquots (10 μl) of test compounds in GPEM. […] Control wells contained the same final concentration of DMSO (0.3%). After initiation of the reaction, absorbance at 340 nm is measured every minute for 60 min at 24° C. using a SpectraMax Plus plate reader (Molecular Devices, Sunnyvale, Calif.).

The next assay has as its system KBV1. Nature of the assay: cells. It is filed as cell-based. As to conditions: for inhibition at 3 µM: KB-V1, 3000 nM; for IC50: 3 days, SRB. On the procedure: (§1) Cell Survival Assay: Standard Pharmacological Test Procedure. […] Compounds are incubated with cells for 3 days.
A further assay relates to KB cells. Nature of the assay: cells. As to conditions: for IC50: 3 days, SRB. It is filed as cell-based. On the procedure: as §1
For another assay, the system named is KB85. The assay can be described thus: cells. It is filed as cell-based. Particulars: for IC50: 3 days, SRB; for inhibition at 3 µM: 3000 nM. On the procedure:
as §1

Broadly, the inhibition is the relative decrease from the control value, in per cent. For orientation: IC50 means the concentration that inhibits the measured activity by half. The low end stands for inhibition by little substance, the high end for a need for much substance. Consider `CN[C@H](C(=O)N[C@H](C(=O)N(C)[C@H](C(=O)N1CCC[C@H]1C(=O)N1CCC[C@H]1C(=O)NCc1ccccc1)C(C)C)C(C)(C)C)C(C)(C)c1ccccc1` [Example 34, N,β,β-trimethyl-L-phenylalanyl-3-methyl-L-valyl-N-methyl-L-valyl-L-prolyl-N-benzyl-L-prolinamide] (H-[NMePhe(β,β-Me2)][Tle][NMeV]PP-NHBn), for which, in assay [1], the “Tubulin Polym. % inhibition at 0.3 uM” value came out at 64%. For the same molecule, testing at 3 µM in the assay on KBV1 (Homo sapiens) gave an inhibition of 5%. The half-inhibitory concentration (IC50) turned out to be 1950 nM in the assay with KBV1 (Homo sapiens, KB-V1, 72 h); 0.25 nM in the assay with KB cells (Homo sapiens, KB, 72 h); 4.2 nM in the assay on KB85 (72 h).
`CN[C@H](C(=O)N[C@H](C(=O)N(C)[C@H](/C=C(\C)C(=O)N1CCC[C@H]1C(=O)OC)C(C)C)C(C)(C)C)C(C)(C)c1cccc(Cl)c1` [Example 23, 3-Chloro-N,β,β-trimethyl-L-phenylalanyl-N^1-{(1S,2E)-4-[(2S)-2-(methoxycarbonyl)pyrrolidin-1-yl]-1-isopropyl-3-methyl-4-oxobut-2-enyl}-N^1,3-dimethyl-L-valinamide]: the “Tubulin Polym. % inhibition at 0.3 uM” value in assay [1] is listed as 88%. Further, the IC50 in the assay with KBV1 (Homo sapiens, KB-V1, 72 h) came out at 362 nM; in the assay with KB cells (Homo sapiens, KB, 72 h) it was 2.5 nM; with KB85 (72 h), 6.2 nM.
With `CN[C@H](C(=O)N[C@H](C(=O)N(C)[C@H](/C=C(\C)C(=O)O)C(C)C)C(C)(C)C)c1ccccc1` [Example 57, (2E,4S)-2,5-dimethyl-4-(methyl{3-methyl-N-[(2S)-2-(methylamino)-2-phenylethanoyl]-L-valyl}amino)-2-hexenoic acid], the “Tubulin Polym. % inhibition at 0.3 uM” value in assay [1] is given as 75%. The molecule further returned an inhibition at 3 µM in the assay on KBV1 (Homo sapiens) of 7%. Moreover, the IC50 was determined as 1760 nM with KB cells (Homo sapiens, KB, 72 h) and 2610 nM with KB85 (72 h).
For the molecule `CN[C@H](C(=O)N[C@H](C(=O)N(C)[C@H](/C=C(\C)C(=O)N1CCN(C)CC1)C(C)C)C(C)(C)C)C(C)(C)c1cc(C)cc(C)c1` [Example 8, N,β,β,3,5-Pentamethyl-L-phenylalanyl-N^1-[(1S,2E)-1-isopropyl-3-methyl-4-(4-methylpiperazin-1-yl)-4-oxobut-2-enyl]-N^1,3-dimethyl-L-valinamide], the “Tubulin Polym. % inhibition at 0.3 uM” value in assay [1] came to 68%. The concentration for half-maximal inhibition (IC50) in the assay on KBV1 (Homo sapiens, KB-V1, 72 h) worked out at 1620 nM; with KB cells (Homo sapiens, KB, 72 h) it was 35 nM; with KB85 (72 h), 56 nM.
As to `CN[C@H](C(=O)N[C@H](C(=O)N(C)[C@H](/C=C(\C)C(=O)N1CCC[C@H]1C(=O)O)C(C)C)C(C)(C)C)C(C)(C)c1cc(C)cc(C)c1` [Example 20, N,β,β,3,5-Pentamethyl-L-phenylalanyl-N^1-{(1S,2E)-4-[(2S)-2-carboxypyrrolidin-1-yl]-1-isopropyl-3-methyl-4-oxobut-2-enyl}-N^1,3-dimethyl-L-valinamide], the “Tubulin Polym. % inhibition at 0.3 uM” value in assay [1] was 80%. For the same molecule, the inhibition at 3 µM with KBV1 (Homo sapiens) was 3%. Besides, the 50% inhibitory concentration (IC50) amounted to 82 nM in the assay with KB cells (Homo sapiens, KB, 72 h) and 664 nM in the assay on KB85 (72 h).
On to `CN[C@H](C(=O)N[C@H](C(=O)N(C)[C@H](/C=C/S(=O)(=O)O)C(C)C)C(C)(C)C)C(C)(C)c1ccccc1` [Example 64, N,β,β-trimethyl-L-phenylalanyl-N^1-[(1S,2E)-1-isopropyl-3-sulfoprop-2-enyl]-N^1,3-dimethyl-L-valinamide], for which the “Tubulin Polym. % inhibition at 0.3 uM” value in assay [1] came out at 86%. The inhibition at 3 µM with KBV1 (Homo sapiens) came out at 0%; with KB cells (Homo sapiens, 72 h, 3000 nM) it was 2%; in the assay on KB85, 1%.
On to `CN[C@H](C(=O)N[C@H](C(=O)N(C)[C@H](/C=C(\C)C(=O)N(C)OC)C(C)C)C(C)(C)C)C(C)(C)c1ccccc1` [Example 52, N,β,β-trimethyl-L-phenylalanyl-N^1-{(1S,2E)-1-isopropyl-4-[methoxy(methyl)-amino]-3-methyl-4-oxobut-2-enyl}-N^1,3-dimethyl-L-valinamide], for which, in assay [1], the “Tubulin Polym. % inhibition at 0.3 uM” value turned out to be 86%. For the same molecule, the half-inhibitory concentration (IC50) was found to be 392 nM in the assay with KBV1 (Homo sapiens, KB-V1, 72 h); 11 nM in the assay with KB cells (Homo sapiens, KB, 72 h); 47 nM in the assay on KB85 (72 h).
Turning to `CN[C@H](C(=O)N[C@H](C(=O)N(C)[C@H](/C=C(\C)C(=O)N1C[C@H](O)C[C@H]1C(=O)O)C(C)C)C(C)(C)C)C(C)(C)c1ccccc1` [Example 42, N,β,β-trimethyl-L-phenylalanyl-N^1-{(1S,2E)-4-[(2S,4R)-2-carboxy-4-hydroxypyrrolidin-1-yl]-1-isopropyl-3-methyl-4-oxobut-2-enyl}-N^1,3-dimethyl-L-valinamide], the “Tubulin Polym. % inhibition at 0.3 uM” value in assay [1] is listed as 96%. Besides, the inhibition at 3 µM with KBV1 (Homo sapiens) was 0%. For the same molecule, the IC50 was found to be 184 nM in the assay with KB cells (Homo sapiens, KB, 72 h) and 1850 nM in the assay on KB85 (72 h).
The like results for `CN[C@H](C(=O)N[C@H](C(=O)N(C)[C@H](/C=C(\C)C(=O)N1CCC[C@@H]1C(=O)O)C(C)C)C(C)(C)C)C(C)(C)c1ccccc1` [Example 43, N,β,β-trimethyl-L-phenylalanyl-N^1-{(1S,2E)-4-[(2R)-2-carboxypyrrolidin-1-yl]-1-isopropyl-3-methyl-4-oxobut-2-enyl}-N^1,3-dimethyl-L-valinamide] were, in that order, 91%, 0%, 515 nM and 1580 nM.
Consider “N,β,β-trimethyl-L-phenylalanyl-N^1-{(1S,2E)-4-[(2S)-2-(2-phenethoxycarbonyl)pyrrolidin-1-yl]-1-isopropyl-3-methyl-4-oxobut-2-enyl}-N^1,3-dimethyl-L-valinamid [Example 37]”, for which the “Tubulin Polym. % inhibition at 0.3 uM” value in assay [1] was found to be 86%. Further, the half-inhibitory concentration (IC50) in the assay on KBV1 turned out to be 1640 nM; with KB cells, 6.4 nM; in the assay on KB85 it was 21 nM.
In the case of `CN[C@H](C(=O)N[C@H](C(=O)N(C)[C@H](/C=C(\C)C(=O)O)C(C)C)C(C)(C)C)C1(C)CCCc2ccccc21` (stereo partly drawn) [Example 59, (2E,4S)-2,5-dimethyl-4-(methyl{3-methyl-N-[(2S)-2-(methylamino)-2-(1-methyl-1,2,3,4-tetrahydro-1-naphthalenyl)ethanoyl]-L-valyl}amino)-2-hexenoic acid], in assay [1], the “Tubulin Polym. % inhibition at 0.3 uM” value is listed as 93%. Moreover, the IC50 in the assay on KBV1 (Homo sapiens, KB-V1, 72 h) was determined as 76 nM; in the assay on KB cells (Homo sapiens, KB, 72 h), 5.5 nM; with KB85 (72 h), 6.6 nM.
`CN[C@@H](C(=O)N[C@H](C(=O)N(C)[C@H](/C=C(\C)C(=O)O)C(C)C)C(C)(C)C)C1(C)CCCc2ccccc21` (single isomer, unassigned) [Example 60]: in assay [1], the “Tubulin Polym. % inhibition at 0.3 uM” value was 94%. In addition, the 50% inhibitory concentration (IC50) was 427 nM with KBV1 (Homo sapiens, KB-V1, 72 h); 9.1 nM in the assay with KB cells (Homo sapiens, KB, 72 h); 17 nM in the assay with KB85 (72 h).
Turning to `C/C(=C\[C@H](C(C)C)N(C)C(=O)[C@@H](NC(=O)[C@@H]1CCCN1C)C(C)(C)C)C(=O)O` [Example 62, 1-methyl-L-prolyl-N^1-[(1S,2E)-3-carboxy-1-isopropylbut-2-enyl]-N^1,3-dimethyl-L-valinamide], the “Tubulin Polym. % inhibition at 0.3 uM” value in assay [1] is 65(2) %. The inhibition at 3 µM in the assay on KBV1 (Homo sapiens) was determined as 10%; in the assay on KB85, 26%. The same molecule had a half-inhibitory concentration (IC50) in the assay on KB cells (Homo sapiens, KB, 72 h) of 2950 nM.
As for `CN[C@@H](C(=O)N[C@H](C(=O)N(C)[C@H](/C=C(\C)C(=O)N1CCN(Cc2ccccc2)CC1)C(C)C)C(C)(C)C)C(C)(C)c1ccc(C)c(C)c1` [Example 13, N,β,β,3,4-Pentamethyl-D-phenylalanyl-N^1-[(1S,2E)-4-(4-benzylpiperazin-1-yl)-1-isopropyl-3-methyl-4-oxobut-2-enyl]-N^1,3-dimethyl-L-valinamide], the “Tubulin Polym. % inhibition at 0.3 uM” value in assay [1] is on record as 11%. For the same molecule, the half-maximal inhibitory concentration (IC50) with KBV1 (Homo sapiens, KB-V1, 72 h) worked out at 1770 nM; with KB cells (Homo sapiens, KB, 72 h), 172 nM; in the assay with KB85 (72 h) it was 352 nM.
On to `CNC(C(=O)NC(C(=O)N(C)C(C=C(C)C(=O)CO)C(C)C)C(C)(C)C)C(C)(C)c1ccccc1` (stereo not drawn) [Example 90, N-{1-[(5-Hydroxy-1-isopropyl-3-methyl-4-oxo-pent-2-enyl)-methyl-carbamoyl]-2,2-dimethyl-propyl}-3-methyl-2-methylamino-3-phenyl-butyramide], for which the “Tubulin Polym. % inhibition at 0.5 uM” value in assay [1] (0.5 uM) is on record as 76*** %. For the same molecule, the half-inhibitory concentration (IC50) with KBV1 (Homo sapiens, KB-V1, 72 h) is 1130 nM; in the assay with KB cells (Homo sapiens, KB, 72 h), 43 nM; in the assay with KB85 (72 h) it was 68 nM.
Take `CN[C@H](C(=O)N[C@H](C(=O)N(C)[C@H](/C=C(\C)C(=O)N1CCC[C@H]1C(=O)O)C(C)C)C(C)(C)C)C(C)(C)c1cccc(Cl)c1` [Example 24, 3-Chloro-N,β,β-trimethyl-L-phenylalanyl-N^1-{(1S,2E)-4-[(2S)-2-carboxypyrrolidin-1yl]-1-isopropyl-3-methyl-4-oxobut-2-enyl}-N^1,3-dimethyl-L-valinamide]: the “Tubulin Polym. % inhibition at 0.3 uM” value in assay [1] worked out at 94%. In the assay with KBV1 (Homo sapiens), this molecule registered an inhibition at 3 µM of 17%. The IC50 was 62 nM in the assay with KB cells (Homo sapiens, KB, 72 h) and 180 nM with KB85 (72 h).
In the case of `CN[C@H](C(=O)N[C@H](C(=O)N(C)[C@H](/C=C(\C)C(=O)N1CCC[C@H]1C(=O)OC)C(C)C)C(C)(C)C)C(C)(C)c1ccc(C)c(C)c1` [Example 17, N,β,β,3,4-Pentamethyl-L-phenylalanyl-N^1-{(1S,2E)-4-[(2S)-2-(methoxycarbonyl)pyrrolidin-1-yl]-1-isopropyl-3-methyl-4-oxobut-2-enyl}-N^1,3-dimethyl-L-valinamide], in assay [1], the “Tubulin Polym. % inhibition at 0.3 uM” value is recorded as 71%. Besides, the IC50 was 363 nM with KBV1 (Homo sapiens, KB-V1, 72 h); 1.9 nM in the assay on KB cells (Homo sapiens, KB, 72 h); 15 nM in the assay on KB85 (72 h).

(Values after patent US7390910B2, “Compounds for treating tumors” (priority 2003, dated 2008).)
